Measured values reported in BindingDB's records for doi:10.1111/j.1476-5381.1995.tb15922.x (Syntex Discovery Research, 1995).

Columns and labels:
[1] = target: T1, 5-hydroxytryptamine receptor 2C (Homo sapiens, UniProt P28335)
T1 sequence (P28335 whole entry): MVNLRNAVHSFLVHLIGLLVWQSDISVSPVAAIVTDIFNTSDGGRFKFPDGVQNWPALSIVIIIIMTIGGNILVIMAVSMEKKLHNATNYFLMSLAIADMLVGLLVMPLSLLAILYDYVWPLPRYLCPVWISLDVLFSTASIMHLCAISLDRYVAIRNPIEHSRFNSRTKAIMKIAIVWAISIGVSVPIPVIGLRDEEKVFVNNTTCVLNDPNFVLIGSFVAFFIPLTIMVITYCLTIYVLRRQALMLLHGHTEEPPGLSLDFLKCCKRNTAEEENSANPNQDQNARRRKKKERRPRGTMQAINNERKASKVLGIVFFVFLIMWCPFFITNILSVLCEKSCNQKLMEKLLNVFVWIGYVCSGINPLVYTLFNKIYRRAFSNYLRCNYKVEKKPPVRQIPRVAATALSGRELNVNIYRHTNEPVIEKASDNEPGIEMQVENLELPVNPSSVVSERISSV

B1 bradykinin receptor = target: T2, B1 bradykinin receptor (Homo sapiens, UniProt P46663)
T2 sequence (P46663 whole entry): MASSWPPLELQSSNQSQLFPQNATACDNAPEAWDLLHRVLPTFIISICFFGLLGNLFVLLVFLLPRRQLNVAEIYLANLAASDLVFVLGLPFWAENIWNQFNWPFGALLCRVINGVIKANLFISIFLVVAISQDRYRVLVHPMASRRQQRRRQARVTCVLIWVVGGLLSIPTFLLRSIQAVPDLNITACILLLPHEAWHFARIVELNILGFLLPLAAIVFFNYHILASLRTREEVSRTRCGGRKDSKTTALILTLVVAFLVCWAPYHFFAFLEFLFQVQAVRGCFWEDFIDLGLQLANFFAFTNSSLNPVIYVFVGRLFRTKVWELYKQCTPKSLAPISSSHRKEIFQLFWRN

D(2) dopamine receptor = D(2) dopamine receptor (Homo sapiens, UniProt P14416)
[2] = target: T3, Muscarinic acetylcholine receptor M2 (Homo sapiens, UniProt P08172)
T3 sequence (P08172 whole entry): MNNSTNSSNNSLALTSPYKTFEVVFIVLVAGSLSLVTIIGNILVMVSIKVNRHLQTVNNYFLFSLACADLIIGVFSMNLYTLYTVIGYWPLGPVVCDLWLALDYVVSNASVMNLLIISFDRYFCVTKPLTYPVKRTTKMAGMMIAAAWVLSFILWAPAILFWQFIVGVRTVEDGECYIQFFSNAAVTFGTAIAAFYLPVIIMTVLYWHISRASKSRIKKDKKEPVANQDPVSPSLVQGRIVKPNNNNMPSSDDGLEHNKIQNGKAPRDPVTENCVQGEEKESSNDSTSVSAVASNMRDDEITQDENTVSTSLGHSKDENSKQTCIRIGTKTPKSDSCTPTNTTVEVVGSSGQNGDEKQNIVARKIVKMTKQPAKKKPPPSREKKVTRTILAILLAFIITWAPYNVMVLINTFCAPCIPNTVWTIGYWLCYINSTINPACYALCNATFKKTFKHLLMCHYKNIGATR

[3] = target: 5-hydroxytryptamine receptor 4 (Cavia porcellus, UniProt O70528)
[4] = target: T4, 5-hydroxytryptamine receptor 3A (Homo sapiens, UniProt P46098)
T4 sequence (P46098 whole entry): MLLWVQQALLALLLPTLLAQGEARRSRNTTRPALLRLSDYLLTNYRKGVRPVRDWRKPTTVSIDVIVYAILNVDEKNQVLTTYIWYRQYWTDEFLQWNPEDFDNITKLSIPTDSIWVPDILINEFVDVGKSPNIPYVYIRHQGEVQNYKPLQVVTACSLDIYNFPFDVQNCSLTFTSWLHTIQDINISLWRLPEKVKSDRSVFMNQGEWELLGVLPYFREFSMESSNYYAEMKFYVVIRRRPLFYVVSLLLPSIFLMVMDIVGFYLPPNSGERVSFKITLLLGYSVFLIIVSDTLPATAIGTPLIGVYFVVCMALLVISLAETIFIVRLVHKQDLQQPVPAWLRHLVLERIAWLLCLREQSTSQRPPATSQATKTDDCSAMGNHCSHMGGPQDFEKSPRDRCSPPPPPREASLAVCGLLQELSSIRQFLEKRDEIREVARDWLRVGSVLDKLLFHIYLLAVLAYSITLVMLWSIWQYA

D(1A) dopamine receptor = D(1A) dopamine receptor (Homo sapiens, UniProt P21728)
[5] = target: T5, Type-1 angiotensin II receptor (Xenopus tropicalis, UniProt B3DLC0)
T5 sequence (B3DLC0 whole entry): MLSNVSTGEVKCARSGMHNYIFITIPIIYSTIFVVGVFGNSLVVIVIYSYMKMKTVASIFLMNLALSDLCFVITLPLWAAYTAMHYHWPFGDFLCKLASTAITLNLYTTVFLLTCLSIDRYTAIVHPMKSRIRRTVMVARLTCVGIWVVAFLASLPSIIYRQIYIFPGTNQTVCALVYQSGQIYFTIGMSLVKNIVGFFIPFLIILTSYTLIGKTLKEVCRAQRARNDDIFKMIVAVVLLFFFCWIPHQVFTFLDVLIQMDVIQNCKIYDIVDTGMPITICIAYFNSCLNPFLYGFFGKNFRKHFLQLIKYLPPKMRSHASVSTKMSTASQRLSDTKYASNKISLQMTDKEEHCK

[6] = target: Glutamate receptor ionotropic, NMDA 1 (Rattus norvegicus, UniProt P35439)
[7] = target: T6, Alpha-1A adrenergic receptor (Homo sapiens, UniProt P35348)
T6 sequence (P35348 whole entry): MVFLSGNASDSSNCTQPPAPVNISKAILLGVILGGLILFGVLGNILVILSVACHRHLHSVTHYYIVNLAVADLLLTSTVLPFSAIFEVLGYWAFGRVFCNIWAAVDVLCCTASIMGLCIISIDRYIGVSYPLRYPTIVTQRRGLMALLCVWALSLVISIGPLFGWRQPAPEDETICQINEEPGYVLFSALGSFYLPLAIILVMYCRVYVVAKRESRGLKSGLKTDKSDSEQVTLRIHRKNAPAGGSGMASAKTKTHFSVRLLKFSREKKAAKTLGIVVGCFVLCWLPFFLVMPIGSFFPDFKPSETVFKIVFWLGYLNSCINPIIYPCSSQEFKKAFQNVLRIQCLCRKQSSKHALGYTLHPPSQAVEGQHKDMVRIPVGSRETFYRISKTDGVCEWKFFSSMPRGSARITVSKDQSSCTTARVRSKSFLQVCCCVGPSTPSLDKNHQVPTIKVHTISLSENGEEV

Mu-type opioid receptor = Mu-type opioid receptor (Rattus norvegicus, UniProt P33535)
[8] = target: T7, Muscarinic acetylcholine receptor M1 (Homo sapiens, UniProt P11229)
T7 sequence (P11229 whole entry): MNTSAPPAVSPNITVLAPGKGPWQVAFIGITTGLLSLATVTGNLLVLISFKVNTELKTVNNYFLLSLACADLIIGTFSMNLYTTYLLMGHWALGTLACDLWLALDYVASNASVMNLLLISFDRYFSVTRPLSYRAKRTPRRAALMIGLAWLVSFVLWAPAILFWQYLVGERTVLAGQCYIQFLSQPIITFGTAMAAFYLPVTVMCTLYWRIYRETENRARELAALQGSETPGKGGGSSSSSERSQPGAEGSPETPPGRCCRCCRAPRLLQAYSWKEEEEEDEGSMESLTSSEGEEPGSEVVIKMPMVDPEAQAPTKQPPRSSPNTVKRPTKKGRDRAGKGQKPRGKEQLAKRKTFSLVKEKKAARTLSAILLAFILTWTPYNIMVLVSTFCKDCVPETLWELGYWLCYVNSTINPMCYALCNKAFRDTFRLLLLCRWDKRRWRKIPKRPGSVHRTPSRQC

Mu-type opioid receptor, sequence (P33535 whole entry): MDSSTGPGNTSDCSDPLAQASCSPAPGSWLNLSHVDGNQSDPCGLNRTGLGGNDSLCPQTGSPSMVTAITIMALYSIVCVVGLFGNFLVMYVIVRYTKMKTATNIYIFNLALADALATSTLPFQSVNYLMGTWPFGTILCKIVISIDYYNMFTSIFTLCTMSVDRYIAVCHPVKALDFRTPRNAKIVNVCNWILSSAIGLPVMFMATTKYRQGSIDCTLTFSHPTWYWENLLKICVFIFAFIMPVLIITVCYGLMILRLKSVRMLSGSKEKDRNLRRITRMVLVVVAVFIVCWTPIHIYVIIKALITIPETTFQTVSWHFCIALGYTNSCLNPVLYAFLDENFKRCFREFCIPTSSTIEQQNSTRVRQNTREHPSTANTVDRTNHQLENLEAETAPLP
5-hydroxytryptamine receptor 4, sequence (O70528 whole entry): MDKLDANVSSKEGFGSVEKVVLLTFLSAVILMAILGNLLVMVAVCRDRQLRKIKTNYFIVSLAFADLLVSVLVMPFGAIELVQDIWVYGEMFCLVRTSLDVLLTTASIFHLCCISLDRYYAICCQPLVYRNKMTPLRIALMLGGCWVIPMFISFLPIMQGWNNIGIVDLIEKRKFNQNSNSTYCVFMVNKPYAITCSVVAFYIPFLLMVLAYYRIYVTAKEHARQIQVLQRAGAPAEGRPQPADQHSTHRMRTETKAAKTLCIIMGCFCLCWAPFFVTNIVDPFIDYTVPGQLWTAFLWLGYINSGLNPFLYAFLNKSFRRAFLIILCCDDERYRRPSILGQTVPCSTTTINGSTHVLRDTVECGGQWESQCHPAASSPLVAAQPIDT
D(1A) dopamine receptor, sequence (P21728 whole entry): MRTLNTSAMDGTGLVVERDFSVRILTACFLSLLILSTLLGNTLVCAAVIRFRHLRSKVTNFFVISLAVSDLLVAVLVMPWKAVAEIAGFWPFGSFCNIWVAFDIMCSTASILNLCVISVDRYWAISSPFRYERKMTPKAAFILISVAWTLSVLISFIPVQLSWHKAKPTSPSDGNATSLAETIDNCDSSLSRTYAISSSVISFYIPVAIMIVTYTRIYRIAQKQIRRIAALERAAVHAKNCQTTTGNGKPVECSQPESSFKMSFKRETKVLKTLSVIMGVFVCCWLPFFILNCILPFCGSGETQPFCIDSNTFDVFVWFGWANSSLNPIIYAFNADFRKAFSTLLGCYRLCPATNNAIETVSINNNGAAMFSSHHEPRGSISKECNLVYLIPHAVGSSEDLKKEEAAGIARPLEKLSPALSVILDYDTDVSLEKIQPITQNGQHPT
D(2) dopamine receptor, sequence (P14416 whole entry): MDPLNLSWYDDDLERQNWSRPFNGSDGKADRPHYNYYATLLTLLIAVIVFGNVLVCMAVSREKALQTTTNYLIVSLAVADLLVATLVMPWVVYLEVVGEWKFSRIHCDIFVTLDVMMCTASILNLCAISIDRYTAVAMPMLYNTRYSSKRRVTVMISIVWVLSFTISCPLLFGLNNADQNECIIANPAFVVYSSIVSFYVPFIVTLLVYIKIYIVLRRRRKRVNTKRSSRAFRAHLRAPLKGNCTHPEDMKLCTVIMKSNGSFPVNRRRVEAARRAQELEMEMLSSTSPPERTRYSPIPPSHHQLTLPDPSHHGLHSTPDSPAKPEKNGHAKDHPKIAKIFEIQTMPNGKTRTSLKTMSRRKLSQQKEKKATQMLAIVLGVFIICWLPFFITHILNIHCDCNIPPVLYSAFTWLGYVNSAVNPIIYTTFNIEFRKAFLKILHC

For `COc1cc(COc2cc(N)c(Cl)cc2C(=O)CCC2CCN(CCNS(C)(=O)=O)CC2)cc(OC)c1` [CAS_167710-87-4], the Ki [1] was 0.794 µM, the Ki (B1 bradykinin receptor) was greater than 10 µM and the Ki (D(2) dopamine receptor) was 1 µM. For the same compound, the Ki [2] was 1 µM, the Ki [3] was 0.00079 µM and the Ki [4] was 1 µM. It also gave a Ki (D(1A) dopamine receptor) of 1 µM, a Ki [5] greater than 10 µM and a Ki [6] of 1 µM. For the same compound, the Ki [7] was 0.398 µM, the Ki (Mu-type opioid receptor) was 1 µM and the Ki [8] was 1 µM.
